Test results as given in US9976141B2, “Compositions and methods for inhibiting gene expression of Hif2alpha” (Arrowhead Madison Inc., priority 2015, dated 2018).
Strand notation (5' to 3'): a small letter for the sugar, then the base; units joined by * are phosphorothioate-linked, units joined directly phosphodiester-linked; [ ] holds rarer units or linkages, { } end groups; capitals alone tell only the bases. d = 2'-deoxy (DNA); m = 2'-O-methyl; f = 2'-fluoro

Tested on: human EPAS1 (Hif2α) cDNA in psiCHECK2 (Renilla luciferase/EPAS1 fusion mRNA) in Hep3B cells
Assay: Efficacy screen of Hif2α RNAi triggers in vitro, dual-luciferase reporter assay (1 nM and 0.1 nM)
Format: cell-based
Settings: Hep3B cells co-transfected with EPAS1-psiCHECK2, Renilla luciferase normalized to firefly luciferase
Procedure, shortened: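 Hep3B cells (10,000/well) co-transfected with chemically modified siRNA triggers at 1 nM and 0.1 nM plus 25 ng EPAS1-psiCHECK2 plasmid via LipoFectamine 2000. Knockdown measured as Renilla luciferase from the EPAS1 fusion mRNA, normalized to constitutive firefly luciferase by dual-luciferase assay.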

2330 (sense fGmAfUmAfUmGfAmCfUmGfUmGfAmGfGmUfGmAfAdT; antisense dTfUmCfAmCfCmUfCmAfCmAfGmUfCmAfUmAfUmCdT*dT; siRNA) [compound 2330]
Relative Rluc-Hif2α (0.1 nM RNAi trigger): 1.097 ± 0.416 | Relative Rluc-Hif2α (1 nM RNAi trigger): 0.464 ± 0.035

2331 (sense fGmGfUmGfAmAfCmGfUmGfCmCfCmGfUmGfCmUfAdT; antisense dTfAmGfCmAfCmGfGmGfCmAfCmGfUmUfCmAfCmCdT*dT; siRNA) [compound 2331]
Relative Rluc-Hif2α (0.1 nM RNAi trigger): 1.002 ± 0.321 | Relative Rluc-Hif2α (1 nM RNAi trigger): 0.783 ± 0.080

2332 (sense fUmAfCmAfAmGfAmUfGmGfAmCfUmUfAmCfCmUfAdT; antisense dTfAmGfGmUfAmAfGmUfCmCfAmUfCmUfUmGfUmAdT*dT; siRNA) [compound 2332]
Relative Rluc-Hif2α (0.1 nM RNAi trigger): 1.174 ± 0.027 | Relative Rluc-Hif2α (1 nM RNAi trigger): 0.871 ± 0.235

2333 (sense fGmGfAmCfUmUfAmCfCmUfGmGfCmAfGmAfCmUfAdT; antisense dTfAmGfUmCfUmGfCmCfAmGfGmUfAmAfGmUfCmCdT*dT; siRNA) [compound 2333]
Relative Rluc-Hif2α (0.1 nM RNAi trigger): 0.684 ± 0.147 | Relative Rluc-Hif2α (1 nM RNAi trigger): 0.291 ± 0.019

2334 (sense fUmUfUmUfUmCfUmGfAmGfAmUfGmCfUmCfAmCfAdT; antisense dTfGmUfGmAfGmCfAmUfCmUfCmAfGmAfAmAfAmAdT*dT; siRNA) [compound 2334]
Relative Rluc-Hif2α (0.1 nM RNAi trigger): 0.672 ± 0.082 | Relative Rluc-Hif2α (1 nM RNAi trigger): 0.389 ± 0.044

2335 (sense fAmGfUmAfCmAfCmAfAmUfUmGfUmUfUmUfAmCfAdT; antisense dTfGmUfAmAfAmAfCmAfAmUfUmGfUmGfUmAfCmUdT*dT; siRNA) [compound 2335]
Relative Rluc-Hif2α (0.1 nM RNAi trigger): 0.311 ± 0.032 | Relative Rluc-Hif2α (1 nM RNAi trigger): 0.104 ± 0.013

2336 (sense fAmCfAmAfGmUfUmUfGmGfUmGfCmAfUmGfUmCfAdT; antisense dTfGmAfCmAfUmGfCmAfCmCfAmAfAmCfUmUfGmUdT*dT; siRNA) [compound 2336]
Relative Rluc-Hif2α (0.1 nM RNAi trigger): 0.783 ± 0.037 | Relative Rluc-Hif2α (1 nM RNAi trigger): 0.299 ± 0.034

2337 (sense fAmCfUmAfAmAfAmAfGmAfUmUfCmCfUmCfGmUfAdT; antisense dTfAmCfGmAfGmGfAmAfUmCfUmUfUmUfUmAfGmUdT*dT; siRNA) [compound 2337]
Relative Rluc-Hif2α (0.1 nM RNAi trigger): 0.334 ± 0.066 | Relative Rluc-Hif2α (1 nM RNAi trigger): 0.131 ± 0.033

2338 (sense fAmGfGmGfUmCfAmAfCmUfCmCfAmAfCmGfUmAfAdT; antisense dTfUmAfCmGfUmUfGmGfAmGfUmUfGmAfCmCfCmUdT*dT; siRNA) [compound 2338]
Relative Rluc-Hif2α (0.1 nM RNAi trigger): 0.743 ± 0.070 | Relative Rluc-Hif2α (1 nM RNAi trigger): 0.334 ± 0.091

2339 (sense fGmGfGmUfCmAfAmCfUmCfCmAfAmCfGmUfAmUfAdT; antisense dTfAmUfAmCfGmUfUmGfGmAfGmUfUmGfAmCfCmCdT*dT; siRNA) [compound 2339]
Relative Rluc-Hif2α (0.1 nM RNAi trigger): 0.523 ± 0.134 | Relative Rluc-Hif2α (1 nM RNAi trigger): 0.189 ± 0.028

2340 (sense fGmUfCmAfAmCfUmCfCmAfAmCfGmUfAmUfGmUfAdT; antisense dTfAmCfAmUfAmCfGmUfUmGfGmAfGmUfUmGfAmCdT*dT; siRNA) [compound 2340]
Relative Rluc-Hif2α (0.1 nM RNAi trigger): 0.920 ± 0.114 | Relative Rluc-Hif2α (1 nM RNAi trigger): 0.444 ± 0.039

2341 (sense fUmCfAmAfCmUfCmCfAmAfCmGfUmAfUmGfUmGfAdT; antisense dTfCmAfCmAfUmAfCmGfUmUfGmGfAmGfUmUfGmAdT*dT; siRNA) [compound 2341]
Relative Rluc-Hif2α (0.1 nM RNAi trigger): 0.378 ± 0.116 | Relative Rluc-Hif2α (1 nM RNAi trigger): 0.202 ± 0.018

2342 (sense fCmAfAmCfUmCfCmAfAmCfGmUfAmUfGmUfGmGfAdT; antisense dTfCmCfAmCfAmUfAmCfGmUfUmGfGmAfGmUfUmGdT*dT; siRNA) [compound 2342]
Relative Rluc-Hif2α (0.1 nM RNAi trigger): 1.058 ± 0.064 | Relative Rluc-Hif2α (1 nM RNAi trigger): 0.549 ± 0.041

2343 (sense fCmUfCmCfAmAfCmGfUmAfUmGfUmGfGmUfUmAfAdT; antisense dTfUmAfAmCfCmAfCmAfUmAfCmGfUmUfGmGfAmGdT*dT; siRNA) [compound 2343]
Relative Rluc-Hif2α (0.1 nM RNAi trigger): 0.620 ± 0.208 | Relative Rluc-Hif2α (1 nM RNAi trigger): 0.254 ± 0.009

2344 (sense fUmCfCmAfAmCfGmUfAmUfGmUfGmGfUmUfAmUfAdT; antisense dTfAmUfAmAfCmCfAmCfAmUfAmCfGmUfUmGfGmAdT*dT; siRNA) [compound 2344]
Relative Rluc-Hif2α (0.1 nM RNAi trigger): 0.570 ± 0.071 | Relative Rluc-Hif2α (1 nM RNAi trigger): 0.276 ± 0.033

2345 (sense fCmCfAmAfCmGfUmAfUmGfUmGfGmUfUmAfUmCfAdT; antisense dTfGmAfUmAfAmCfCmAfCmAfUmAfCmGfUmUfGmGdT*dT; siRNA) [compound 2345]
Relative Rluc-Hif2α (0.1 nM RNAi trigger): 0.296 ± 0.096 | Relative Rluc-Hif2α (1 nM RNAi trigger): 0.129 ± 0.026

2346 (sense fAmAfCmGfUmAfUmGfUmGfGmUfUmAfUmCfUmGfAdT; antisense dTfCmAfGmAfUmAfAmCfCmAfCmAfUmAfCmGfUmUdT*dT; siRNA) [compound 2346]
Relative Rluc-Hif2α (0.1 nM RNAi trigger): 0.523 ± 0.133 | Relative Rluc-Hif2α (1 nM RNAi trigger): 0.273 ± 0.012
